Test results published in publication PMC7778606, “Development of the phenylpyrazolo[3,4-d]pyrimidine-based, insulin-like growth factor receptor/Src/AXL-targeting small molecule kinase inhibitor” (Theranostics, 2021).

Columns and labels:
Test in all cases: KINOMEscan competition binding assay
MAPKAPK2 = target: T1, MAPKAPK2 (Homo sapiens, UniProt P49137); details: LL6 at 10 μM; read-out: Percent Control
T1 construct: purchased DiscoverX KINOMEscan
Protocol: (§1) Kd values were obtained by KINOMEscan from DiscoverX (San Diego, CA, USA). To briefly summarize, Kd was measured by a competition binding assay that quantitatively measures the ability of a compound to compete with an immobilized ligand. […] Dose response curves of 11 points are obtained for Kd values, which are measured in duplicate. See more details in the cited references [39]-[42] and see also at www.discoverx.com.

[1] = target: T2, TYK2(JH1domain-catalytic) (Homo sapiens, UniProt P29597); details: LL6 at 10 μM; read-out: Percent Control
T2 construct: TYK2(JH1domain-catalytic); purchased DiscoverX KINOMEscan
Protocol: as §1

PKAC-alpha = target: T3, PKAC-alpha (Homo sapiens, UniProt P17612); details: LL6 at 10 μM; read-out: Percent Control
T3 construct: purchased DiscoverX KINOMEscan
Protocol: as §1

PIK3C2B = target: T4, PIK3C2B (Homo sapiens, UniProt O00750); details: LL6 at 10 μM; read-out: Percent Control
T4 construct: purchased DiscoverX KINOMEscan
Protocol: as §1

FAK = target: T5, FAK (Homo sapiens, UniProt Q05397); details: LL6 at 10 μM; read-out: Percent Control
T5 construct: purchased DiscoverX KINOMEscan
Protocol: as §1

PIK3CA = target: T6, PIK3CA (Homo sapiens, UniProt P42336); details: LL6 at 10 μM; read-out: Percent Control
T6 construct: purchased DiscoverX KINOMEscan
Protocol: as §1

ERBB4 = target: T7, ERBB4 (Homo sapiens, UniProt Q15303); details: LL6 at 10 μM; read-out: Percent Control
T7 construct: purchased DiscoverX KINOMEscan
Protocol: as §1

EPHA2 = target: T8, EPHA2 (Homo sapiens, UniProt P29317); details: LL6 at 10 μM; read-out: Percent Control
T8 construct: purchased DiscoverX KINOMEscan
Protocol: as §1

IKK-beta = target: T9, IKK-beta (Homo sapiens, UniProt O14920); details: LL6 at 10 μM; read-out: Percent Control
T9 construct: purchased DiscoverX KINOMEscan
Protocol: as §1

p38-beta = target: T10, p38-beta (Homo sapiens, UniProt Q15759); details: LL6 at 10 μM; read-out: Percent Control
T10 construct: purchased DiscoverX KINOMEscan
Protocol: as §1

JNK3 = target: T11, JNK3 (Homo sapiens, UniProt P53779); details: LL6 at 10 μM; read-out: Percent Control
T11 construct: purchased DiscoverX KINOMEscan
Protocol: as §1

ROCK2 = target: T12, ROCK2 (Homo sapiens, UniProt O75116); details: LL6 at 10 μM; read-out: Percent Control
T12 construct: purchased DiscoverX KINOMEscan
Protocol: as §1

BRAF(V600E) = target: T13, BRAF(V600E) (Homo sapiens, UniProt P15056, V600E); details: LL6 at 10 μM; read-out: Percent Control
T13 construct: purchased DiscoverX KINOMEscan
Protocol: as §1

EGFR = target: T14, EGFR (Homo sapiens, UniProt P00533); details: LL6 at 10 μM; read-out: Percent Control
T14 construct: purchased DiscoverX KINOMEscan
Protocol: as §1

DYRK1B = target: T15, DYRK1B (Homo sapiens, UniProt Q9Y463); details: LL6 at 10 μM; read-out: Percent Control
T15 construct: purchased DiscoverX KINOMEscan
Protocol: as §1

MAP3K4 = target: T16, MAP3K4 (Homo sapiens, UniProt Q9Y6R4); details: LL6 at 10 μM; read-out: Percent Control
T16 construct: purchased DiscoverX KINOMEscan
Protocol: as §1

RAF1 = target: T17, RAF1 (Homo sapiens, UniProt P04049); details: LL6 at 10 μM; read-out: Percent Control
T17 construct: purchased DiscoverX KINOMEscan
Protocol: as §1

PLK1 = target: T18, PLK1 (Homo sapiens, UniProt P53350); details: LL6 at 10 μM; read-out: Percent Control
T18 construct: purchased DiscoverX KINOMEscan
Protocol: as §1

p38-alpha = target: T19, p38-alpha (Homo sapiens, UniProt Q16539); details: LL6 at 10 μM; read-out: Percent Control
T19 construct: purchased DiscoverX KINOMEscan
Protocol: as §1

PAK2 = target: T20, PAK2 (Homo sapiens, UniProt Q13177); details: LL6 at 10 μM; read-out: Percent Control
T20 construct: purchased DiscoverX KINOMEscan
Protocol: as §1

PIM3 = target: T21, PIM3 (Homo sapiens, UniProt Q86V86); details: LL6 at 10 μM; read-out: Percent Control
T21 construct: purchased DiscoverX KINOMEscan
Protocol: as §1

DCAMKL1 = target: T22, DCAMKL1 (Homo sapiens, UniProt O15075); details: LL6 at 10 μM; read-out: Percent Control
T22 construct: purchased DiscoverX KINOMEscan
Protocol: as §1

CHEK1 = target: T23, CHEK1 (Homo sapiens, UniProt O14757); details: LL6 at 10 μM; read-out: Percent Control
T23 construct: purchased DiscoverX KINOMEscan
Protocol: as §1

FLT3 = target: T24, FLT3 (Homo sapiens, UniProt P36888); details: LL6 at 10 μM; read-out: Percent Control
T24 construct: purchased DiscoverX KINOMEscan
Protocol: as §1

ERK1 = target: T25, ERK1 (Homo sapiens, UniProt P27361); details: LL6 at 10 μM; read-out: Percent Control
T25 construct: purchased DiscoverX KINOMEscan
Protocol: as §1

YANK3 = target: T26, YANK3 (Homo sapiens, UniProt Q86UX6); details: LL6 at 10 μM; read-out: Percent Control
T26 construct: purchased DiscoverX KINOMEscan
Protocol: as §1

KIT(D816V) = target: T27, KIT(D816V) (Homo sapiens, UniProt P10721, D816V); details: LL6 at 10 μM; read-out: Percent Control
T27 construct: purchased DiscoverX KINOMEscan
Protocol: as §1

MLK1 = target: T28, MLK1 (Homo sapiens, UniProt P80192); details: LL6 at 10 μM; read-out: Percent Control
T28 construct: purchased DiscoverX KINOMEscan
Protocol: as §1

PDPK1 = target: T29, PDPK1 (Homo sapiens, UniProt O15530); details: LL6 at 10 μM; read-out: Percent Control
T29 construct: purchased DiscoverX KINOMEscan
Protocol: as §1

KIT = target: T30, KIT (Homo sapiens, UniProt P10721)
T30 construct: purchased DiscoverX (KINOMEscan service)
Protocol: as §1

ALK = target: T31, ALK (Homo sapiens, UniProt Q9UM73); details: LL6 at 10 μM; read-out: Percent Control
T31 construct: purchased DiscoverX KINOMEscan
Protocol: as §1

TIE2 = target: T32, TIE2 (Homo sapiens, UniProt Q02763); details: LL6 at 10 μM; read-out: Percent Control
T32 construct: purchased DiscoverX KINOMEscan
Protocol: as §1

BRAF = target: T33, BRAF (Homo sapiens, UniProt P15056); details: LL6 at 10 μM; read-out: Percent Control
T33 construct: purchased DiscoverX KINOMEscan
Protocol: as §1

CSNK1G2 = target: T34, CSNK1G2 (Homo sapiens, UniProt P78368); details: LL6 at 10 μM; read-out: Percent Control
T34 construct: purchased DiscoverX KINOMEscan
Protocol: as §1

CSF1R = target: T35, CSF1R (Homo sapiens, UniProt P07333)
T35 construct: purchased DiscoverX (KINOMEscan service)
Protocol: as §1

CDK7 = target: T36, CDK7 (Homo sapiens, UniProt P50613); details: LL6 at 10 μM; read-out: Percent Control
T36 construct: purchased DiscoverX KINOMEscan
Protocol: as §1

ULK2 = target: T37, ULK2 (Homo sapiens, UniProt Q8IYT8); details: LL6 at 10 μM; read-out: Percent Control
T37 construct: purchased DiscoverX KINOMEscan
Protocol: as §1

PIM1 = target: T38, PIM1 (Homo sapiens, UniProt P11309); details: LL6 at 10 μM; read-out: Percent Control
T38 construct: purchased DiscoverX KINOMEscan
Protocol: as §1

PLK4 = target: T39, PLK4 (Homo sapiens, UniProt O00444); details: LL6 at 10 μM; read-out: Percent Control
T39 construct: purchased DiscoverX KINOMEscan
Protocol: as §1

PAK4 = target: T40, PAK4 (Homo sapiens, UniProt O96013); details: LL6 at 10 μM; read-out: Percent Control
T40 construct: purchased DiscoverX KINOMEscan
Protocol: as §1

[2] = LL6 at 10 μM, read-out: Percent Control

- remaining binding at 10 µM (MAPKAPK2): 100%
- remaining binding at 10 µM [1]: 100%
- remaining binding at 10 µM (PKAC-alpha): 36%
- remaining binding at 10 µM (PIK3C2B): 100%
- remaining binding at 10 µM (FAK): 73%
- remaining binding at 10 µM (PIK3CA): 100%
- remaining binding at 10 µM (ERBB4): 40%
- remaining binding at 10 µM (EPHA2): 100%
- remaining binding at 10 µM (IKK-beta): 100%
- remaining binding at 10 µM (p38-beta): 65%
- remaining binding at 10 µM (JNK3): 42%
- remaining binding at 10 µM (ROCK2): 100%
- remaining binding at 10 µM (BRAF(V600E)): 22%
- remaining binding at 10 µM (EGFR): 82%
- remaining binding at 10 µM (DYRK1B): 55%
- remaining binding at 10 µM (MAP3K4): 75%
- remaining binding at 10 µM (RAF1): 82%
- remaining binding at 10 µM (PLK1): 100%
- remaining binding at 10 µM (p38-alpha): 100%
- remaining binding at 10 µM (PAK2): 100%
- remaining binding at 10 µM (PIM3): 100%
- remaining binding at 10 µM (DCAMKL1): 100%
- remaining binding at 10 µM (CHEK1): 100%
- remaining binding at 10 µM (FLT3): 43%
- remaining binding at 10 µM (ERK1): 100%
- remaining binding at 10 µM (YANK3): 100%
- remaining binding at 10 µM (KIT(D816V)): 66%
- remaining binding at 10 µM (MLK1): 75%
- remaining binding at 10 µM (PDPK1): 87%
- inhibition at 10 µM (KIT; KIT, LL6 at 10 µM): > 65%
- remaining binding at 10 µM (KIT; [2]): 1.8%
- remaining binding at 10 µM (ALK): 100%
- remaining binding at 10 µM (TIE2): 62%
- remaining binding at 10 µM (BRAF): 45%
- remaining binding at 10 µM (CSNK1G2): 63%
- inhibition at 10 µM (CSF1R; CSF1R, LL6 at 10 µM): > 65%
- remaining binding at 10 µM (CSF1R; [2]): 29%
- remaining binding at 10 µM (CDK7): 56%
- remaining binding at 10 µM (ULK2): 96%
- remaining binding at 10 µM (PIM1): 98%
- remaining binding at 10 µM (PLK4): 66%
- remaining binding at 10 µM (PAK4): 97%
SMILES: Nc1ncnc2c1c(-c1ccc(Cl)cc1)nn2CCn1cc(COc2ccc(Nc3nccc(Nc4cnc5ccccc5c4)n3)cc2)nn1 [LL6]
- Kd (KIT; KIT, 11-point dose response, duplicate): did not show dose-dependent inhibition curves
- Kd (CSF1R; CSF1R, 11-point dose response, duplicate): did not show dose-dependent inhibition curves
